Data taken from patent US20220033448A1, “METHODS FOR AGGREGATION OF PROTEINS” (priority 2011, published 2022).
Like-named read-outs stand apart in the source and are kept apart here. No end group written: not given here. *: point of attachment. Biotin = O=C1N[C@H]2[C@H](CS[C@H]2CCCCC(=O)*)N1; Ttds = NCCCOCCOCCOCCCNC(=O)CCC(=O)*

How the values were obtained:
PR8 virus = format: cell-based, influenza A virus (H1N1 strain)
S. aureus [1] = format: cell-based, Staphylococcus aureus; conditions: S. aureus clinical strain MRSA 204; passaged at half the MIC over 15 days
S. aureus MRSA 326 = test: Neutropenic-mouse thigh model; conditions: neutropenic mice; bolus i.v. dose of 15 mg/kg 2 h after inoculation; sacrificed 4 hours post-infection
β-Gal [2] = target: T1, β-Gal (Escherichia coli, UniProt P00722); conditions: 10 μM peptide and 10 μM β-Gal; 20 mM sodium phosphate buffer, pH 6.8
T1 sequence (P00722 2-1024 with the stated changes limits assumed): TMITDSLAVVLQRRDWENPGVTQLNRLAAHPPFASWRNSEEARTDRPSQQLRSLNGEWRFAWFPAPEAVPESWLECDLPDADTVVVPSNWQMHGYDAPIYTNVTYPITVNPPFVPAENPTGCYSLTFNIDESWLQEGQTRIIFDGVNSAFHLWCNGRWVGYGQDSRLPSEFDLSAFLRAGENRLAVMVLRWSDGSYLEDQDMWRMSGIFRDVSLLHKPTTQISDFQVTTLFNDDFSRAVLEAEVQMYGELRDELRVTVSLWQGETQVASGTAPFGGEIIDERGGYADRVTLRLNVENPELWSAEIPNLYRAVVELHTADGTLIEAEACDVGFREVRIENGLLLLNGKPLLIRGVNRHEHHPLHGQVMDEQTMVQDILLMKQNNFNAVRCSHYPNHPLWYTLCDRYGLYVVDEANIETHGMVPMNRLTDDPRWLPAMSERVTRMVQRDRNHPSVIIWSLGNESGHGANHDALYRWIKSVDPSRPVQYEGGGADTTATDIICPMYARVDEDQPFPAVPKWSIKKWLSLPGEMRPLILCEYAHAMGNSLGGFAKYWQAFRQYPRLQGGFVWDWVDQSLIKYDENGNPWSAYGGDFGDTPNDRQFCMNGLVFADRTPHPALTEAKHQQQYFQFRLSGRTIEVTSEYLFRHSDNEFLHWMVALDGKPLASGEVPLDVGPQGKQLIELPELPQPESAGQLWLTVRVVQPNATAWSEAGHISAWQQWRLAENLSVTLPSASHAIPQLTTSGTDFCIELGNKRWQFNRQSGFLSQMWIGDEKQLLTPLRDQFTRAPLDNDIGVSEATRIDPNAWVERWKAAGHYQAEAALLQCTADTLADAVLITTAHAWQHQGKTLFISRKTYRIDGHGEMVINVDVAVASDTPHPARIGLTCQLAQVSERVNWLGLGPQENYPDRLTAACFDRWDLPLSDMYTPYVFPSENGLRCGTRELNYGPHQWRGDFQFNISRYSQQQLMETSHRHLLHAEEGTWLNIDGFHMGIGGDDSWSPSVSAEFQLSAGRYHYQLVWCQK
Protocol: The co-aggregation of Tango 1 peptide, Tango 2 peptide and a tandem repeat of Tango 2 peptide with 13-Gal in vitro were monitored via light scattering from the apparent change in the optical density (OD) at 340 nm due to growth of aggregate particulates at room temperature. The interferor-β-Gal co-aggregation was initiated by adding equimolar molar concentration (10 μM) of either Tango 1 peptide, either Tango 2 peptide, either tandem repeat of Tango 2 peptide and β-Gal in 20 mM sodium phosphate buffer, pH 6.8 followed by gently stirring the sample at 50 rpm.
To characterise the size of the aggregates the hydrodynamic radius (RH) of β-Gal at time zero and after co-incubation with the either Tango 1 peptide, either Tango 2 peptide, either tandem repeat of Tango 2 peptide (Table 14) for 2 h was measured using dynamic light scattering (DLS), DynaPro DLS (Wyatt Technology Europe, Germany).

S. aureus [3] = tested on: S. aureus
Protocol: (§1) Bacteria were grown in a shaking incubator at 37° C. and 160rpm in 50 ml BHI , using individual colonies retrieved from a fresh overnight TSA-sheep blood plate. The cultures were grown to a density of approximately 1×10^8cells/ml and then diluted to 5×10^5 cells/ml in CAMHB (Mc Farland 0.5). Each well contained 100p.I (50p.I of peptide containing MHB plus 50 μl inoculum). The final cell density was 1×10^5 to 5×10^5/ml. After addition of the cell suspension, plates were incubated at 37° C. for 18 to 24 hours. The optical density at 590 nm (OD590) of each well was measured after 5 seconds of shaking the plate using Perkin Elmer spectrophotometer (1420 Multilabel Counter Vicotr 3). […] Each well, where no growth was observed, was also plated on TSA-sheep blood agar plates, incubated at 37° C. overnight and visually inspected.
(§2) A microbroth dilution method was used with twofold serial dilutions in CAMHB (according to EMEA guidelines) was used for screening of peptide activity, with concentrations ranging from 0.3 μg/mIto 200 μg/ml.

Klebsiella pneumoniae = format: cell-based
[4] = tested on: Salmonella typhi ATCC14028; format: cell-based
[5] = tested on: human embryonic kidney cells (HEK293T cell line); conditions: 100 μg/ml; 24 hours incubation
Excerpt: Alamar blue assay allowed monitoring of the total percentage of cell growth recovery in time in the presence of peptides.

human erythrocytes = format: cell-based
Excerpt: The detergent Tween was used as a positive control, causing 100% lysis of RBCs.

[6] = tested on: Human embryonic kidney (HEK293T) cells; conditions: 50 μg/ml (C30: 50 μg/ml or beyond)
human EGFR2 = target: T2, human EGFR2 (Homo sapiens, UniProt P04626); test: EGF-induced ERK1/2 phosphorylation in HeLa cells (ELISA); format: cell-based; conditions: EGF 25 ng/ml
T2 construct: these cells endogenously express EGFR1 and EGFR2; endogenous in cells; host or cells: HeLa
Protocol: The EGFR2 peptides are designed to target the human EGFR2 receptor. Thus, for these assays, HeLa cells were initially used, as these cells endogenously express EGFR1 and EGFR2.
For EGFR2, a similar screen was performed as for VEGFR2. Instead of using the time-consuming Western Blot method, however, an ELISA protocol was used that can detect both phospho- and total ERK1/2.

β-Gal [7] = target: T1, β-Gal; conditions: for binding to β-Gal on blot: 250 nM biotinylated peptide, 1 h, complete BL21 cell lysate
Protocol: A 0.4 ml suspension of BL21 cells (OD600 nm ^˜1.2) expressing β-Gal (grown under induced conditions) was centrifuged at 5000 g for 10 min at room temperature. The supernatant was discarded and 0.8 ml of bacterial protein extraction reagent (B-PER, Thermo scientific) containing protease inhibitor was added to the bacterial pellet and vortex mixed for 30 s in order to lyse the cells. To 21 μl of the complete BL21 cell lysate 5 μl of 5× SDS sample loading buffer (Fermentas) was added and heated at 99° C. for 3 min. This mixture (26 μl per well) was loaded in a 10-well NuPage 4-12% Bis-Tris gel and the proteins were separated under denaturing conditions. The separated proteins were then transferred to a nitrocellulose membrane and blocked overnight with 1% BSA in phosphate buffer saline, 0.05% Tween 20, pH 7.4 (PBS-T) at 4° C. Each lane of the membrane was cut out and separately incubated with either rabbit anti-β-Gal antibody either biotinylated Tango 1, either biotinylated Tango 2, or the biotinylated off-target peptide or either a biotinylated Tango 2 mutant peptide.
This was followed by 3×10 min wash with PBS-T and finally rinsed in deionised water for 10 min. The membrane strip was exposed to chemiluminescence HRP substrate reagent (SuperSignal West Femto Maximum Sensitivity Substrate, Thermo Fisher Scientific) and target protein visualized using Bio-Rad ChemiDoc XRS imaging system.
A stock solution (10 μM) of each of the biotinylated peptides was prepared in 100% DMSO. The peptide stock was diluted (1/400) in 10 mM MES buffer, 100 mM Trehalose, 0.05% Tween 20, pH 5.5 to obtain a final concentration of the peptide of 25 nM. The freshly prepared peptide solution was immediately added to the membrane strip and gently agitated at room temperature. After 15 min the peptide solution was decanted and the membrane strip was washed 3×10 min with 10 mM MES buffer, 0.05% Tween 20, pH 5.5 and further processed as described herein before.

PSA = target: T3, PSA (Homo sapiens, UniProt P07288); test: PepBlot detection of PSA in human seminal plasma; format: binding; conditions: 10% seminal plasma; for detection of PSA compared with monoclonal antibody: 250 nM peptide
T3 construct: A sample of 10% seminal plasma was fractionated under non-reducing condition using denaturing gel electrophoresis; from tissue; host or cells: human seminal plasma
T3 sequence (P07288 25-261): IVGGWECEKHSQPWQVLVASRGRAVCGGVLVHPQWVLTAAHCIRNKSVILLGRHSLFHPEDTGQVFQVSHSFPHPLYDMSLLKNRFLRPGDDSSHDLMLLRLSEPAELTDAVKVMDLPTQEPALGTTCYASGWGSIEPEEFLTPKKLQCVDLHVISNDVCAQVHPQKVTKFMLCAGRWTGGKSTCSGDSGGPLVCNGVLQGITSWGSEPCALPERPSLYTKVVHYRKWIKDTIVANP
Protocol: Semen from a volunteer was collected and allowed to liquefy at room temperature. After 2 h the seminal fluid was centrifuged at 10,000×g for 15 min to separate the plasma from sperm cells. A sample of 10% seminal plasma was fractionated under non-reducing condition using denaturing gel electrophoresis then transferred to PVDF membrane and blocked using protocol described for serum electrophoresis. Lanes of membrane were agitated separately with 250 nM of peptide b^˜[…] (SEQ ID NO: 88) or peptide b^˜[…] (SEQ ID NO: 85) or 250 pM tandem repeat peptide b^˜[…] (SEQ ID NO: 89) formulated in 10 mM MES buffer pH 5.1, 100 mM trehalose, 0.05% Tween 20 and 2.5% DMSO at 25° C. for 1 h. The membranes were rinsed in 10 mM MES buffer pH 5.1, 0.05% tween 20 and stained with HRP-conjugated SRP and visualized with ECL system. In parallel WB detection of PSA in seminal plasma was carried out by incubating the membrane with (1:5000) rabbit monoclonal anti-PSA antibody (EP1588Yi Abcam) specific to the c-terminal peptide of PSA. This was followed by staining with goat polyclonal anti-rabbit antibody conjugated to HRP and visualised using ECL system.

Protocol for B. cereus: as §1, §2
Protocol for Corynebacterium: as §1, §2
Protocol for E. coli: as §1, §2
Protocol for E. faecalis: as §1, §2
Protocol for Nocardia asteroides: as §1, §2
Protocol for S. epidermidis: as §1, §2
Protocol for S. hominis: as §1, §2

**Q.** Which results are given for `CC1(C)S[C@@H]2[C@H](NC(=O)[C@H](N)c3ccccc3)C(=O)N2[C@H]1C(=O)O` [Ampicilin, reference compound]?
**A.** maximal increase of the MIC (MRSA strain 326; 31 days, concentration in medium adjusted to MIC of previous day): up to 7 fold; MIC on the last day of the experiment (MRSA strain 326; day 31): 100 µg/mL

**Q.** `CCOC(=O)C1=C[C@@H](OC(CC)CC)[C@H](NC(C)=O)[C@@H](N)C1` [Tamiflu, reference compound] was tested. Which virus replication (PR8 virus; positive control, 1 μM or 10 nM) did it give?
**A.** The virus replication was “did not completely inhibit viral replication in one setup”.

**Q.** `CO[C@H]1/C=C/O[C@@]2(C)Oc3c(C)c(O)c4c(O)c(c(/C=N/N5CCN(C)CC5)c(O)c4c3C2=O)NC(=O)/C(C)=C\C=C\[C@H](C)[C@H](O)[C@@H](C)[C@@H](O)[C@@H](C)[C@H](OC(C)=O)[C@@H]1C` [rifampin, reference compound] was tested. Which “fold elevation of the MIC” value (S. aureus [1]) did it give?
**A.** Its value is at most 512 fold.

**Q.** With `CN[C@H](CC(C)C)C(=O)N[C@H]1C(=O)N[C@@H](CC(N)=O)C(=O)N[C@H]2C(=O)N[C@H]3C(=O)N[C@H](C(=O)N[C@H](C(=O)O)c4cc(O)cc(O)c4-c4cc3ccc4O)[C@H](O)c3ccc(c(Cl)c3)Oc3cc2cc(c3O[C@@H]2O[C@H](CO)[C@@H](O)[C@H](O)[C@H]2O[C@H]2C[C@](C)(N)[C@H](O)[C@H](C)O2)Oc2ccc(cc2Cl)[C@H]1O` [vancomycin, reference compound] as the molecule, how does the “fold elevation of the MIC” value (S. aureus [1]) read?
**A.** The value was “increased two-fold”.

**Q.** What about the “reduction of expansion of initial inoculum” value (S. aureus MRSA 326) of the same molecule?
**A.** Its value is 8.7 Log10 CFU/ml.

**Q.** Which “co-aggregation kinetics with free β-Gal in solution” value (β-Gal [2]) does the source give for “(His)6~RVIIWSLGNRGSGSAPAARVIIWSLGNR [Tandem of Tango 2]” here?
**A.** The value was “fast co-aggregation kinetics”.

**Q.** Which results are given for Ac-RILLGLIRRGSRILLGLIRR-NH2 [P2170/P1]?
**A.** Minimum inhibitory concentrations MIC90 (E. faecalis): 12.5 µg/mL; Minimum inhibitory concentrations MIC90 (S. aureus [3]): 12.5 µg/mL; Minimum inhibitory concentrations MIC90 (Klebsiella pneumoniae): >200 µg/mL; Minimum inhibitory concentrations MIC90 (E. coli): 25 µg/mL; Minimum inhibitory concentrations MIC90 [4]: 100 µg/mL; Minimum inhibitory concentrations MIC90 (B. cereus): 6 µg/mL; Minimum inhibitory concentrations MIC90 (Nocardia asteroides): 6 µg/mL; Minimum inhibitory concentrations MIC90 (S. epidermidis): 6 µg/mL; Minimum inhibitory concentrations MIC90 (S. hominis): 3 µg/mL; Minimum inhibitory concentrations MIC90 (Corynebacterium): >200 µg/mL

**Q.** For Ac-RILLGLIRRGSRILLGLIRR-NH2 [P2170/P2], which “Minimum inhibitory concentrations MIC90” value (E. faecalis) is on record?
**A.** Its value is 12.5 µg/mL.

**Q.** And the “Minimum inhibitory concentrations MIC90” value (S. aureus [3])?
**A.** The value was 12.5 µg/mL.

**Q.** What about the “Minimum inhibitory concentrations MIC90” value (Klebsiella pneumoniae) of the same molecule?
**A.** The value was over 200 µg/mL.

**Q.** What about the “Minimum inhibitory concentrations MIC90” value (E. coli) of the same molecule?
**A.** The value was 25 µg/mL.

**Q.** What about the “Minimum inhibitory concentrations MIC90” value [4] of the same molecule?
**A.** Its value is 100 µg/mL.

**Q.** And the “Minimum inhibitory concentrations MIC90” value (B. cereus)?
**A.** Its value is 6 µg/mL.

**Q.** And the “Minimum inhibitory concentrations MIC90” value (Nocardia asteroides)?
**A.** Its value is 3 µg/mL.

**Q.** What about the “Minimum inhibitory concentrations MIC90” value (S. epidermidis) of the same molecule?
**A.** The value was 12.5 µg/mL.

**Q.** And the “Minimum inhibitory concentrations MIC90” value (S. hominis)?
**A.** The value was 3 µg/mL.

**Q.** And the “Minimum inhibitory concentrations MIC90” value (Corynebacterium)?
**A.** Its value is 100 µg/mL.

**Q.** O Z RGVSILNLRGSRGVSILNLR [interferor 4] was tested. Which virus replication (PR8 virus) did it give?
**A.** Its virus replication is “still reproducibly inhibit virus replication”.

**Q.** Which virus replication (PR8 virus) does the source give for O Z RLIQLIVSRGSRLIQLIVSR [interferor 1] here?
**A.** Its virus replication is “still reproducibly inhibit virus replication”.

**Q.** “O Z RTMAWTVVRGSRTMAWIVVR (RTMAWTVVRGSRTMAWTVVR) [interferor 3]” was tested. Which virus replication (PR8 virus) did it give?
**A.** Its virus replication is “less strong”.

**Q.** For O Z RTTIMAAFRGSRTTIMAAFR [interferor 2], which virus replication (PR8 virus) is on record?
**A.** The virus replication was “less strong”.

**Q.** For RFFIALSRRGSRVQAYLYRR [Hit50], which “recovery of HEK cells” value [5] is on record?
**A.** Its value is 90%.

**Q.** What about the hemolytic activity (human erythrocytes) of the same molecule?
**A.** Its hemolytic activity is “no significant hemolytic activity at clinically relevant concentrations”.

**Q.** And the MIC (S. aureus [3])?
**A.** The MIC was 25 µg/mL.

**Q.** What about the “MIC in presence of 50% FBS” value (S. aureus [3]) of the same molecule?
**A.** Its value is 100 µg/mL.

**Q.** What about the “MIC values against MRSA 326” value (S. aureus [3]) of the same molecule?
**A.** The value was 50 µg/mL.

**Q.** What about the LDH release [6] of the same molecule?
**A.** The LDH release was 5%.

**Q.** And the “MIC values against B.cereus ATCC” value (B. cereus)?
**A.** Its value is over 100 µg/mL.

**Q.** And the “MIC values against Corynebacterium” value (Corynebacterium)?
**A.** Its value is 12.5 µg/mL.

**Q.** RIISAVVGRPPRIISAVVGR [A12] was tested. Which “EGF signaling (phospho-ERK1/2)” value (human EGFR2) did it give?
**A.** Its value is “significantly and repeatedly reduced EGF signaling”.

**Q.** For RLFNFLKRGSRLFNFLKR [C29/Hit11], which hemolytic activity (human erythrocytes) is on record?
**A.** Its hemolytic activity is “no significant hemolytic activity at clinically relevant concentrations”.

**Q.** What about the “MIC values against MRSA 326” value (S. aureus [3]) of the same molecule?
**A.** The value was 12.5 µg/mL.

**Q.** And the “MIC values against S.aureus ATCC 29213” value (S. aureus [3])?
**A.** Its value is 12.5 to 25 µg/mL.

**Q.** What about the “MIC values against B.cereus ATCC” value (B. cereus) of the same molecule?
**A.** Its value is 6 to 12.5 µg/mL.

**Q.** What about the “MIC values against Corynebacterium” value (Corynebacterium) of the same molecule?
**A.** The value was 6 µg/mL.

**Q.** Which “EGF signaling (phospho-ERK1/2)” value (human EGFR2) does the source give for RTGYLYISRPPRTGYLYISR [A11] here?
**A.** The value was “significantly and repeatedly reduced EGF signaling”.

**Q.** Which “EGF signaling (phospho-ERK1/2)” value (human EGFR2) does the source give for RWGLLLALRPPRWGLLLALR [A5] here?
**A.** Its value is “significantly and repeatedly reduced EGF signaling”.

**Q.** How did the “HD50 (concentration at which 50% of red blood cells are lysed)” value (human erythrocytes) turn out when RWVSMLLRRGSRWVSMLLRR [Hit1] was run?
**A.** Its value is 25 to 50 µg/mL.

**Q.** And the MIC (S. aureus [3])?
**A.** The MIC was 3 µg/mL.

**Q.** And the “MIC in presence of 50% FBS” value (S. aureus [3])?
**A.** The value was 25 µg/mL.

**Q.** And the “MIC values against MRSA 326” value (S. aureus [3])?
**A.** Its value is 6 µg/mL.

**Q.** And the “MIC values against B.cereus ATCC” value (B. cereus)?
**A.** The value was 6 µg/mL.

**Q.** And the “MIC values against Corynebacterium” value (Corynebacterium)?
**A.** Its value is 3 µg/mL.

**Q.** b~DVIIWSLGNR~b [Complimentary charge] was tested. Which “specificity of binding to β-gal versus serum proteins” value (β-Gal [7]; competitive PepBlot, 7% clinical serum in adjacent lane, 25 nM, 15 min) did it give?
**A.** The value was “does not cross react with proteins in the serum”.

**Q.** Which “binding to β-Gal on blot” value (β-Gal [7]) does the source give for b~RLAVVLQR [Tango 1] here?
**A.** The value was “weaker binding”.

**Q.** With b~RPITVNPPFR [Off-Target] as the molecule, how does the “binding to β-Gal on blot” value (β-Gal [7]) read?
**A.** The value was “no interaction”.

**Q.** For b~RQWVLTAAR [PSA interferor peptide], which “detection of PSA compared with monoclonal antibody” value (PSA) is on record?
**A.** Its value is “can detect PSA to comparable levels as the antibody”.

**Q.** For “b~RQWVLTAARGSGSAPAARQWVLTAAR ({Biotin-Ttds}-APAARQWVLTAARGSGSAPAARQWVLTAAR) [tandem repeat PSA peptide]”, which “detection of PSA (band signal)” value (PSA; 250 pM tandem repeat peptide) is on record?
**A.** The value was “strong band signal”.

**Q.** b~RVIIWSLGNR [Tango 2] was tested. Which “binding to β-Gal on blot” value (β-Gal [7]) did it give?
**A.** The value was “strong affinity to the β-Gal”.

**Q.** How did the “binding to β-Gal on blot” value (β-Gal [7]) turn out when b~RVIPWSLGNR [Tango 2 Mut_2] was run?
**A.** The value was “still bind efficiently to β-Gal”.

**Q.** Which “binding to β-Gal on blot” value (β-Gal [7]) does the source give for b~RVPIWSLGNR [Tango 2 Mut_1] here?
**A.** Its value is “still bind efficiently to β-Gal”.

**Q.** With b~RWQVLVASD as the molecule, how does the “detection of PSA compared with monoclonal antibody” value (PSA) read?
**A.** Its value is “can detect PSA to comparable levels as the antibody”.
